Experimental findings from ChEMBL document CHEMBL3046717, “Synthesis of Alkylene-Tethered Bis-Imidacloprid Derivatives as Highly Insecticidal and Nerve-Exciting Agents with Potent Affinity to [3H] Imidacloprid-Binding Sites on Nicotinic Acetylcholine Receptor” (J Pestic Sci, 2002) are described below.

Assay [1] has as its system Periplaneta americana. Kind of assay: Insecticidal activity against Periplaneta americana (American cockroach) assessed as killing compound injected into abdomen of cockroach after 24 hr in presence of 50 ug piperonyl butoxide oxidative metabolism inhibitor and 50 ug propargyl propyl benzenephosphonate inhibitor of hydrolytic measured per insect relative to compound alone. The class given is functional.

Assay [2] deals with Periplaneta americana. Kind of assay: Insecticidal activity against Periplaneta americana (American cockroach) assessed as killing compound injected into abdomen of cockroach after 24 hr measured per insect. The class given is functional.
The subject of assay [3] is Periplaneta americana. Kind of assay: Insecticidal activity against Periplaneta americana (American cockroach) assessed as killing compound injected into abdomen of cockroach after 24 hr in presence of 50 ug piperonyl butoxide oxidative metabolism inhibitor and 50 ug propargyl propyl benzenephosphonate inhibitor of hydrolytic measured per insect. The class given is functional.

Assay [4] concerns Periplaneta americana. Kind of assay: Insecticidal activity against Periplaneta americana (American cockroach) assessed as killing compound injected into abdomen of cockroach after 24 hr in presence of 50 ug piperonyl butoxide oxidative metabolism inhibitor measured per insect relative to compound alone. The class given is functional.
Assay [5] has as its target T1, Nicotinic acetylcholine receptor alpha 5 subunit (Musca domestica, UniProt A9XFY4).
T1 sequence (A9XFY4 whole entry): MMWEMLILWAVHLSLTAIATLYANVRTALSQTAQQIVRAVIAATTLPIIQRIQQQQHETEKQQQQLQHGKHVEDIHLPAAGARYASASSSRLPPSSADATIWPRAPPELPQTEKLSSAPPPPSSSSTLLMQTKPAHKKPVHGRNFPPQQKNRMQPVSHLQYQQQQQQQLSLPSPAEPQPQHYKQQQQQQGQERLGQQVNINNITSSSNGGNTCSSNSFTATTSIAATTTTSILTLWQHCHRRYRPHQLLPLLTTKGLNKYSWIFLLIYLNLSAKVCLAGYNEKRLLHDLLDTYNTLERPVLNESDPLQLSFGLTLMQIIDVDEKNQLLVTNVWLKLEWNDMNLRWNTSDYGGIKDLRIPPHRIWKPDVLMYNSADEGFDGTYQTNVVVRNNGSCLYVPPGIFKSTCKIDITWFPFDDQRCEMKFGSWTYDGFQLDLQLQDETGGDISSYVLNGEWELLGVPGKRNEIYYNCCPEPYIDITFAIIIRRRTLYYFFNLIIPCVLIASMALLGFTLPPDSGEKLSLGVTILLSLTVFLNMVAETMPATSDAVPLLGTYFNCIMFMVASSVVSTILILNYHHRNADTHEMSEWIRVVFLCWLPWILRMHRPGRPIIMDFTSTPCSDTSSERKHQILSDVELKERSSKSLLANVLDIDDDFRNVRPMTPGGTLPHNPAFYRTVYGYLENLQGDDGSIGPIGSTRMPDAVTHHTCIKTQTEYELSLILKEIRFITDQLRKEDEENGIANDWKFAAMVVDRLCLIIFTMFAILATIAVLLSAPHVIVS
Briefly: Displacement of [3H]imidacloprid from Musca domestica (house fly)-head membrane nAChR. For orientation: Displacement assays read how much labelled ligand stays bound in the presence of the test substance.

The subject of assay [6] is Periplaneta americana. Briefly: Insecticidal activity against Periplaneta americana (American cockroach) assessed as killing compound injected into abdomen of cockroach after 24 hr in presence of 50 ug piperonyl butoxide oxidative metabolism inhibitor measured per insect. The class given is functional.
For assay [7], the system named is Periplaneta americana. Briefly: Insecticidal activity against Periplaneta americana (American cockroach) assessed as killing compound injected into abdomen of cockroach after 24 hr in presence of 50 ug propargyl propyl benzenephosphonate inhibitor of hydrolytic metabolism of tetramethrin pyrethroid measured per insect relative to compound alone. The class given is functional.

Assay [8] has as its system Periplaneta americana. Briefly: Insecticidal activity against Periplaneta americana (American cockroach) assessed as killing compound injected into abdomen of cockroach after 24 hr in presence of 50 ug propargyl propyl benzenephosphonate inhibitor of hydrolytic metabolism of tetramethrin pyrethroid measured per insect. The class given is functional.
In assay [9] the target is T2, Nicotinic acetylcholine receptor alpha 5 subunit (Musca domestica) (UniProt A9XFY4).
T2 sequence (whole entry): T1 sequence (A9XFY4 whole entry)
Kind of assay: Displacement of [3H]imidacloprid from Musca domestica (house fly)-head membrane nAChR relative to N,N'-(3,3'-(hexane-1,6-diyl)bis(1-((6-chloropyridin-3-yl)methyl)imidazolidin-3-yl-2-ylidene))dinitramide.

Assay [10] has as its system Periplaneta americana. Kind of assay: Insecticidal activity against Periplaneta americana (American cockroach) assessed as changes in frequency of firing in nerve cords in nerve preparation measured for every 30 secs immediately after treatment at 3x10'-6 M by electrophysiological method. The class given is functional, organism-based. To be noted: TDE = time-dependent effect.

Assay [11] relates to Periplaneta americana. Briefly: Insecticidal activity against Periplaneta americana (American cockroach) assessed as changes in frequency of firing in nerve cords in nerve preparation measured for every 30 secs immediately after treatment at 9x10'-7 M by electrophysiological method. The class given is functional. To be noted: TDE = time-dependent effect.

For the compound `O=[N+]([O-])/N=C1\N(CCCCN2CCN(Cc3ccc(Cl)nc3)/C2=N/[N+](=O)[O-])CCN1Cc1ccc(Cl)nc1`, in assay [1], the Ratio came out at 2. For the same compound, the values for the MLD in [2] and in assay [3] were 11 nmol and 6.5 nmol, respectively.
For `O=[N+]([O-])/N=C1\N(CCCCCCCCN2CCN(Cc3ccc(Cl)nc3)/C2=N/[N+](=O)[O-])CCN1Cc1ccc(Cl)nc1`, in assay [1], the Ratio worked out at 26. Besides, the MLD was found to be 4.5 nmol in assay [2] and 0.17 nmol in assay [3].
Regarding `O=[N+]([O-])/N=C1/N(CCCCCCCCCN2CCN(Cc3ccc(Cl)nc3)/C2=N/[N+](=O)[O-])CCN1Cc1ccc(Cl)nc1`, the Ratio in [1] worked out at 16. The MLD in assay [2] is recorded as 2.8 nmol; in [3], 0.17 nmol.
As to `O=[N+]([O-])/N=C1\N(CCCCCCCCCCN2CCN(Cc3ccc(Cl)nc3)/C2=N/[N+](=O)[O-])CCN1Cc1ccc(Cl)nc1`, the Ratio came to 16 in assay [1], 2 in [4], 19 in assay [7] and 0.11 in assay [9]. The IC50 (commonly the concentration that gives 50% inhibition) in assay [5] is 27 µM. The MLD in assay [6] is given as 1.5 nmol; in assay [2], 3.7 nmol; in assay [3] it was 0.23 nmol; in [8], 0.19 nmol.
Consider `O=[N+]([O-])/N=C1\N(Cc2ccc(N3CCN(Cc4ccc(Cl)nc4)/C3=N\[N+](=O)[O-])cc2)CCN1Cc1ccc(Cl)nc1`, for which the Ratio in assay [1] is recorded as 50; in assay [4], 4; in assay [7], 10. The MLD worked out at 6.7 nmol in assay [6], 27 nmol in assay [2], 0.54 nmol in assay [3] and 2.7 nmol in assay [8].
For the compound `O=[N+]([O-])/N=C1\NCCN1Cc1ccc(Cl)nc1` [IMIDACLOPRID], the Ratio in assay [1] turned out to be 36; in [4], 3; in [7] it was 13; in assay [9], 160. For the same compound, the MLD in assay [6] is listed as 0.78 nmol; in assay [2], 2.5 nmol; in assay [3] it was 0.07 nmol; in [8], 0.19 nmol.
Take `O=[N+]([O-])/N=C1/N(CCCCCCCN2CCN(Cc3ccc(Cl)nc3)/C2=N/[N+](=O)[O-])CCN1Cc1ccc(Cl)nc1` [Heptamethylene 1,7-bis-imadacloprid]: the Ratio in assay [1] is given as 13. For the same compound, the MLD in assay [2] worked out at 2.8 nmol; in [3] it was 0.22 nmol.
The like results for `O=[N+]([O-])/N=C1/N(CCCN2CCN(Cc3ccc(Cl)nc3)/C2=N/[N+](=O)[O-])CCN1Cc1ccc(Cl)nc1` were, in that order, 6, 4.9 nmol and 0.79 nmol.
Regarding `O=[N+]([O-])/N=C1/N(Cc2ccc(Cl)nc2)CCN1Cc1cccc(N2CCN(Cc3ccc(Cl)nc3)/C2=N\[N+](=O)[O-])c1`, the Ratio in assay [1] turned out to be 20. For the same compound, the values for the MLD in assay [2] and in assay [3] were 20 nmol and 1 nmol, respectively.
On to `O=[N+]([O-])/N=C1\N(CCN2CCN(Cc3ccc(Cl)nc3)/C2=N/[N+](=O)[O-])CCN1Cc1ccc(Cl)nc1`, for which the Ratio in assay [1] turned out to be 8; in [4] it was 1; in assay [7], 4; in assay [9], 0.028. The half-inhibitory concentration (IC50) in [5] was 110 µM. The MLD in assay [6] came to 8.3 nmol; in [2] it was 8.3 nmol; in assay [3], 1.1 nmol; in assay [8] it was 2.2 nmol.
Consider `O=[N+]([O-])/N=C1/N(CCCCCN2CCN(Cc3ccc(Cl)nc3)/C2=N/[N+](=O)[O-])CCN1Cc1ccc(Cl)nc1`, for which the Ratio in assay [1] is listed as 24. The MLD in assay [2] was 3.9 nmol; in [3], 0.16 nmol.
Consider `O=[N+]([O-])NC1=NCCN1Cc1ccc(Cl)nc1` [IMIDACLOPRID], for which, in assay [5], the 50% inhibitory concentration (IC50) worked out at 0.02 µM.
As for `O=[N+]([O-])/N=C1\N(C/C=C/CN2CCN(Cc3ccc(Cl)nc3)/C2=N/[N+](=O)[O-])CCN1Cc1ccc(Cl)nc1`, the Ratio in [1] was determined as 20. Besides, the MLD in assay [2] is listed as 30 nmol; in assay [3], 1.5 nmol.
As for `O=[N+]([O-])/N=C1/N(CCCOCCCN2CCN(Cc3ccc(Cl)nc3)/C2=N/[N+](=O)[O-])CCN1Cc1ccc(Cl)nc1`, the Ratio turned out to be 20 in assay [1], 26 in [4], 20 in assay [7] and 0.042 in [9]. In [5], this compound gave an IC50 of 73 µM. The MLD in assay [6] is recorded as 0.23 nmol; in assay [2], 5.9 nmol; in assay [3], 0.3 nmol; in assay [8] it was 0.3 nmol.
Turning to `O=[N+]([O-])/N=C1\N(CC#CCN2CCN(Cc3ccc(Cl)nc3)/C2=N/[N+](=O)[O-])CCN1Cc1ccc(Cl)nc1`, the Ratio in assay [1] is 12. Moreover, the values for the MLD in assay [2] and in [3] were 3.7 nmol and 0.3 nmol, respectively.
For the compound `O=[N+]([O-])/N=C1\N(CCCCCCN2CCN(Cc3ccc(Cl)nc3)/C2=N/[N+](=O)[O-])CCN1Cc1ccc(Cl)nc1`, the Ratio in [1] came to 8; in assay [4], 4; in assay [7], 10. Besides, the IC50 in [5] was found to be 3.1 µM. Further, the Activity entry in [10] and in assay [11] was “tde” in each case. Besides, the MLD was determined as 0.58 nmol in assay [6], 2.2 nmol in assay [2], 0.29 nmol in assay [3] and 0.22 nmol in assay [8].
